Test results from patent US11040035B2, “3-oxo-2,6-diphenyl-2,3-dihydropyridazine-4-carboxamides” (BAYER PHARMA AKTIENGESELLSCHAFT, priority 2016, dated 2021).

Assays:
[1] = target: T1, AHR (Homo sapiens, UniProt P35869); experiment: In vitro assay 2: agonism in human cell line (transactivation assay)
T1 sequence (P35869 11-848): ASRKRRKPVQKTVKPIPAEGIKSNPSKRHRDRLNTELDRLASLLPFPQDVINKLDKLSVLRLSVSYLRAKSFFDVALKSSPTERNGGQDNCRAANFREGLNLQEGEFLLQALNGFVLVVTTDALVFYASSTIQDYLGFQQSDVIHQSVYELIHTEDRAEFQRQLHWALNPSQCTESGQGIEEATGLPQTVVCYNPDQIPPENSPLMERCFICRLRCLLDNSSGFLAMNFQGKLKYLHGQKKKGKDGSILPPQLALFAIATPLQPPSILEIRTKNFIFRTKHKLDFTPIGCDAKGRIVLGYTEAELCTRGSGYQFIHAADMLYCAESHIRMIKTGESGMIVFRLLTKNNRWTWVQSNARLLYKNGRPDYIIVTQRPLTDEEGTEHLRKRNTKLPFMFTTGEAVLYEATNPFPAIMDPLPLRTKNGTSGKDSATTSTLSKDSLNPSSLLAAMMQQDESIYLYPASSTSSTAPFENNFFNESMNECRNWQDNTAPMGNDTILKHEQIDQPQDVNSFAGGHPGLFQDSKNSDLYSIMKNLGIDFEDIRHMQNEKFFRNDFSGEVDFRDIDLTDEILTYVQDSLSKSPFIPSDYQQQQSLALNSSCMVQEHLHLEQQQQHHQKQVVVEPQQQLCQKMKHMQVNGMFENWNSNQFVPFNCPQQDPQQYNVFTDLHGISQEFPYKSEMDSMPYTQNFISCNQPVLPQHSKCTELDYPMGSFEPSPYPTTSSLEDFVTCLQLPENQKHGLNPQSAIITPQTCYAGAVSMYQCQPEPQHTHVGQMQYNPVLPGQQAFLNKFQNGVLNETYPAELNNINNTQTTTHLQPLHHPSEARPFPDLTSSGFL

[2] = target: T1, AHR; experiment: In vitro assay 1: antagonism in human cell line (transactivation assay, kynurenic acid prestimulated); conditions: Assay 1: AHR-luc Hum Antagonism IC50 [M], 150 μM kynurenic acid, 20 hours, firefly luciferase
[3] = read-out: Assay 2: AHR-luc Hum Agonism IC50, no kynurenic acid, 20 hours, firefly luciferase
[4] = Assay 2: AHR-luc Hum Agonism IC50 [M], no kynurenic acid, 20 hours, firefly luciferase

Row | Structure (SMILES) | IC50 [1, 3] [M] | IC50 [2] [M] | IC50 [1, 4] [M]
1 | O=C(NC(CO)C(F)(F)F)c1cc(-c2ccc(OC(F)(F)F)cc2)nn(-c2cccc(F)c2)c1=O (single isomer, unassigned) [Example 171, 2-(3-Fluorophenyl)-3-oxo-N-(1,1,1-trifluoro-3-hydroxypropan-2-yl)-6-[4-(trifluoromethoxy)phenyl]-2,3-dihydropyridazine-4-carboxamide] | > 2e-05 | 6.77e-07 | –
2 | COCC(O)CNC(=O)c1cc(-c2ccc(C)cc2)nn(-c2cccc(F)c2)c1=O (single isomer, unassigned; enantiomer 1) [Example 17, 2-(3-Fluorophenyl)-N-(2-hydroxy-3-methoxypropyl)-6-(4-methylphenyl)-3-oxo-2,3-dihydropyridazine-4-carboxamide, Enantiomer 1] | – | 2.11e-07 | > 2e-05
3 | C[C@H](O)[C@H](C)NC(=O)c1cc(-c2ccc(Cl)cc2)nn(-c2cc(Cl)cc(Cl)c2)c1=O (relative stereo) [Example 312, 6-(4-Chlorophenyl)-2-(3,5-dichlorophenyl)-N-[(2S,3S)-3-hydroxybutan-2-yl]-3-oxo-2,3-dihydropyridazine-4-carboxamide] | – | 5.88e-07 | > 2e-05
4 | O=C(NC(CO)C1CCOC1)c1cc(-c2ccc(OC(F)F)cc2)nn(-c2cccc(F)c2)c1=O (single isomer, unassigned) [Example 147, 6-[4-(Difluoromethoxy)phenyl]-2-(3-fluorophenyl)-N-{(2-hydroxy-1-tetrahydrofuran-3-yl)ethyl}-3-oxo-2,3-dihydropyridazine-4-carboxamide] | > 2e-05 | 4.66e-07 | –
5 | Cc1cccc(-n2nc(-c3ccc(Cl)cc3)cc(C(=O)NCC(O)C(F)(F)F)c2=O)c1 (stereo not shown) [Example 366, 6-(4-chlorophenyl)-2-(3-methylphenyl)-3-oxo-N-(3,3,3-trifluoro-2-hydroxypropyl)-2,3-dihydropyridazine-4-carboxamide] | – | 9.7e-07 | > 2e-05

The next molecules have a lower IC50 [2] than those just listed; values first:

Row | IC50 [1, 3] [M] | IC50 [2] [M] | IC50 [1, 4] [M] | Structure (SMILES)
6 | – | 1.66e-07 | > 2e-05 | O=C(NC1(CO)CCCCC1)c1cc(-c2ccc(Cl)cc2)nn(-c2cccc(F)c2)c1=O [Example 215, 6-(4-Chlorophenyl)-2-(3-fluorophenyl)-N-[1-(hydroxymethyl)cyclohexyl]-3-oxo-2,3-dihydropyridazine-4-carboxamide]
7 | – | 1.34e-07 | > 2e-05 | O=C(NC(CO)Cc1ccccn1)c1cc(-c2ccc(Cl)cc2)nn(-c2cccc(F)c2)c1=O (racemic) [Example 333, 6-(4-chlorophenyl)-2-(3-fluorophenyl)-N-[(2RS)-1-hydroxy-3-(pyridin-2-yl)propan-2-yl]-3-oxo-2,3-dihydropyridazine-4-carboxamide]
8 | – | 1.32e-07 | > 2e-05 | COc1ccc(-c2cc(C(=O)N[C@@H]3CCCC[C@H]3O)c(=O)n(-c3cccc(F)c3)n2)cc1 (relative stereo) [Example 152, 2-(3-Fluorophenyl)-N-trans-2-hydroxycyclohexyl-6-(4-methoxyphenyl)-3-oxo-2,3-dihydropyridazine-4-carboxamide]
9 | > 2e-05 | 8.8e-08 | – | O=C(N[C@H]1COC[C@H]1O)c1cc(-c2ccc(Cl)cc2)nn(-c2cccc(F)c2)c1=O (single isomer, unassigned) [Example 385, 6-(4-chlorophenyl)-2-(3-fluorophenyl)-N-[cis-4-hydroxytetrahydrofuran-3-yl]-3-oxo-2,3-dihydropyridazine-4-carboxamide]
10 | – | 8.07e-08 | > 2e-05 | C[C@H](O)[C@H](C)NC(=O)c1cc(-c2ccc(OC(F)F)cc2)nn(-c2cccc(F)c2)c1=O (relative stereo) [Example 143, rel-6-[4-(Difluoromethoxy)phenyl]-2-(3-fluorophenyl)-N-[(2S,3S)-3-hydroxybutan-2-yl]-3-oxo-2,3-dihydropyridazine-4-carboxamide]
11 | – | 6.29e-08 | > 2e-05 | CC(CCO)NC(=O)c1cc(-c2ccc(Cl)cc2)nn(-c2cccc(F)c2)c1=O (single isomer, unassigned; (+)) [Example 207, (+)-6-(4-Chlorophenyl)-2-(3-fluorophenyl)-N-(4-hydroxybutan-2-yl)-3-oxo-2,3-dihydropyridazine-4-carboxamide]
